Laboratory results: patent US20110305784A1, “Fractionated products obtained from gamboge resin, and medical uses of the same” (priority 2010, published 2011)
Converted amounts (≈) assume the structure as drawn. Like-named read-outs stand apart in the source and are kept apart here.

Columns and labels:
[1] = tested on: Human colon adenocarcinoma cell HT-29; assay: cells; settings: for CC50: HT-29, read-out: LC50 (50% lethal concentration)
Text: (§1) The in vitro anti-cancer test was primarily used to detect the effect of a candidate drug on cancer cell proliferation. The working principle involved therein is the ability of viable cells to shift alamarBlue (AbD Serotec, UK) from its originally non-fluorescent oxidized state (non-fluorescent, blue) to a reduced form (fluorescent, red) having fluorescence via metabolic reaction. According to the fluorescent data result generated by the alamarBlue reagent thus obtained, the proliferation of the viable cells and cell activity can be quantified for detection.
(§2) In the in vitro anti-cancer tests, a candidate drug was tested at 5 different concentrations of 0.01, 0.1, 1, 10, and 100 μg/ml, and six human cancer cell lines and a normal human cell line were used (see Table 10).

[2] = tested on: Human histocytic lymphoma cell U937; assay: cells; settings: for CC50: U-937, read-out: LC50 (50% lethal concentration)
Text: as §1, §2

[3] = tested on: Human promyelocytic leukemia cell HL-60; assay: cells; settings: for CC50: HL-60, read-out: LC50 (50% lethal concentration)
Text: as §1, §2

[4] = tested on: Human breast adenocarcinoma cell MCF7; assay: cells; settings: for CC50: MCF7, read-out: LC50 (50% lethal concentration)
Text: as §1, §2

[5] = tested on: Human hepatocellular carcinoma cell HepG2; assay: cells; settings: for CC50: HepG2, read-out: LC50 (50% lethal concentration)
Text: as §1, §2

[6] = tested on: Human lung carcinoma cell A549; assay: cells; settings: for CC50: A549, read-out: LC50 (50% lethal concentration)
Text: as §1, §2

[7] = tested on: Human umbilical venal epithelial cell (HUVEC); assay: cells; settings: HUVEC; for IC50: Homo sapiens
Text: as §1, §2

in vitro = settings: human
Text: as §1, §2

[8] = HL-60, read-out: IC50 (50% inhibition concentration)
[9] = A549, read-out: IC50 (50% inhibition concentration)

## CC(C)=CCC[C@]1(C)C=Cc2c(O)c3c(c(CC=C(C)C)c2O1)O[C@]12C(=C[C@@H]4CC1C(C)(C)O[C@]2(C/C=C(/CO)C(=O)O)C4=O)C3=O [Gh-1601-A, 30-hydroxygambogic acid]
[1]; HT-29, read-out: IC50 (50% inhibition concentration), HT-29
  IC50: 0.17 µg/mL (≈ 0.264 µM)
[1]
  CC50: 0.77 µg/mL (≈ 1.19 µM)
[2]; U-937, read-out: IC50 (50% inhibition concentration), U937
  IC50: 0.09 µg/mL (≈ 0.14 µM)
[2]
  CC50: 0.28 µg/mL (≈ 0.434 µM)
[3]; HL-60, read-out: IC50 (50% inhibition concentration), HL-60
  IC50: 0.56 µg/mL (≈ 0.869 µM)
[3]
  CC50: 3 µg/mL (≈ 4.65 µM)
[4]; MCF7, read-out: IC50 (50% inhibition concentration), MCF-7
  IC50: 0.72 µg/mL (≈ 1.12 µM)
[4]
  CC50: 4.4 µg/mL (≈ 6.82 µM)
[5]; HepG2, read-out: IC50 (50% inhibition concentration), HepG2
  IC50: 1.3 µg/mL (≈ 2.02 µM)
[5]
  CC50: 4.1 µg/mL (≈ 6.36 µM)
[6]; A549, read-out: IC50 (50% inhibition concentration), A549
  IC50: 0.11 µg/mL (≈ 0.171 µM)
[6]
  CC50: 6.6 µg/mL (≈ 10.2 µM)
[7]; read-out: IC50 (50% inhibition concentration), HUVEC
  IC50: 0.19 µg/mL (≈ 0.295 µM)

## CC(C)=CCC[C@@]1(C)C=Cc2c(O)c3c(c(CC(O)C(C)(C)O)c2O1)O[C@]12C(=C[C@@H]4CC1C(C)(C)OC2(C/C=C(/C)C(=O)O)C4=O)C3=O (some centres unmarked) [Gh-1036, epiformoxanthone F]
[1]
  CC50: 12 µg/mL (≈ 18.1 µM)
[2]
  CC50: 0.81 µg/mL (≈ 1.22 µM)
[3]
  CC50: 3.1 µg/mL (≈ 4.68 µM)
[4]
  CC50: 3.8 µg/mL (≈ 5.73 µM)
[5]
  CC50: 8.6 µg/mL (≈ 13 µM)
In vitro
  CC50: 4.8 µg/mL (≈ 7.24 µM)
[6]
  CC50: 0.52 µg/mL (≈ 0.785 µM)

## CC(C)=CCc1c2c(c(O)c3c1O[C@]14C(=C[C@@H]5CC1C(C)(C)OC4(C/C=C(/C)C(=O)O)C5=O)C3=O)C=C[C@@](C)(CCC(O)C(C)(C)O)O2 (some centres unmarked) [Gh-3261, formoxanthone J]
[1]
  CC50: 3.9 µg/mL (≈ 5.88 µM)
[2]
  CC50: 0.31 µg/mL (≈ 0.468 µM)
[3]
  CC50: 7 µg/mL (≈ 10.6 µM)
[4]
  CC50: 2.8 µg/mL (≈ 4.22 µM)
[5]
  CC50: 2.8 µg/mL (≈ 4.22 µM)
In vitro
  CC50: 1.4 µg/mL (≈ 2.11 µM)
[6]
  CC50: 0.5 µg/mL (≈ 0.754 µM)

## CC(C)=CCC[C@]1(C)C=Cc2c(O)c3c(c(CC=C(C)C)c2O1)O[C@]12C(=C[C@@H]4CC1C(C)(C)OC2(C/C=C(/C)C(=O)O)C4=O)C3=O [Gh-2605, gambogic acid]
[7]
  LC50 (50% lethal concentration): 1.6 µg/mL (≈ 2.54 µM)

## CC(C)=CCc1c2c(c(O)c3c1O[C@@]1(C)CCC4C3C1C4(C)C)C(=O)C1=C[C@@H]3CC4C(C)(C)O[C@](C/C=C(/C)C(=O)O)(C3=O)[C@@]14O2 [Gh-2607-1A, epiformoxanthone B]
[7]
  LC50 (50% lethal concentration): 1.5 µg/mL (≈ 2.39 µM)

## CC(C)=CCC/C(C)=C/Cc1c(O)c(CC=C(C)C)c2c(c1O)C(=O)C1=C[C@@H]3CC4C(C)(C)OC(CC=C(C)C)(C3=O)[C@@]14O2 [Gh-4301, desoxygambogenin]
[2]
  CC50: > 100 µg/mL
[3]
  CC50: > 100 µg/mL
[7]
  LC50 (50% lethal concentration): 1.3 µg/mL (≈ 2.16 µM)

## C=C(C)C1CC[C@]2(C)C[C@H]1c1c(O)c3c(c(CC=C(C)C)c1O2)O[C@]12C(=CC4CC1C(C)(C)O[C@]2(C/C=C(/C)C(=O)O)C4=O)C3=O (some centres unmarked) [Gh-2603-2, gambogellic acid]
[1]; HT-29, read-out: IC50 (50% inhibition concentration)
  IC50: 1.4 µg/mL (≈ 2.23 µM)
[1]
  CC50: 3.9 µg/mL (≈ 6.2 µM)
[2]; U-937, read-out: IC50 (50% inhibition concentration)
  IC50: 1.5 µg/mL (≈ 2.39 µM)
[2]
  CC50: 3.6 µg/mL (≈ 5.73 µM)
[3]; [8]
  IC50: 0.93 µg/mL (≈ 1.48 µM)
[3]
  CC50: 2.4 µg/mL (≈ 3.82 µM)
[4]; MCF7, read-out: IC50 (50% inhibition concentration)
  IC50: 2.2 µg/mL (≈ 3.5 µM)
[4]
  CC50: 4.2 µg/mL (≈ 6.68 µM)
[5]; HepG2, read-out: IC50 (50% inhibition concentration)
  IC50: 0.65 µg/mL (≈ 1.03 µM)
[5]
  CC50: 3.5 µg/mL (≈ 5.57 µM)
[6]; [9]
  IC50: 0.2 µg/mL (≈ 0.318 µM)
[6]
  CC50: 0.47 µg/mL (≈ 0.748 µM)
[7]; read-out: IC50 (50% inhibition concentration)
  IC50: 0.14 µg/mL (≈ 0.223 µM)

## CC(C)=CCC[C@@]1(C)C=Cc2c(O)c3c(c(CC=C(C)C)c2O1)O[C@]12C(=C[C@@H]4CC1C(C)(C)O[C@]2(C/C=C(/C)C(=O)O)C4=O)C3=O [Gh-2606, epigambogic acid]
[1]
  CC50: 2 µg/mL (≈ 3.18 µM)
[5]
  CC50: 3 µg/mL (≈ 4.77 µM)
[6]; [9]
  IC50: 0.1 µg/mL (≈ 0.159 µM)
[7]
  LC50 (50% lethal concentration): 1.4 µg/mL (≈ 2.23 µM)

## CC(C)=CCC[C@]1(C)C=Cc2c(O)c3c(c(CC(O)C(C)(C)O)c2O1)O[C@]12C(=C[C@@H]4CC1C(C)(C)OC2(C/C=C(/C)C(=O)O)C4=O)C3=O (some centres unmarked) [Gh-1052, formoxanthone F]
[1]
  CC50: 5.7 µg/mL (≈ 8.6 µM)
[2]
  CC50: 0.69 µg/mL (≈ 1.04 µM)
[3]
  CC50: 3.4 µg/mL (≈ 5.13 µM)
[4]
  CC50: 2.4 µg/mL (≈ 3.62 µM)
[5]
  CC50: 4 µg/mL (≈ 6.04 µM)
In vitro
  CC50: 3.1 µg/mL (≈ 4.68 µM)
[6]
  CC50: 2.5 µg/mL (≈ 3.77 µM)

## CC(C)=CCC/C(C)=C/Cc1c(O)c(CC=C(C)C)c2c(c1O)C(=O)C1=C[C@@H]3CC4C(C)(C)O[C@](C/C=C(/C)C(=O)O)(C3=O)[C@@]14O2 [Gh-2505, gambogenic acid]
[7]
  LC50 (50% lethal concentration): 2.3 µg/mL (≈ 3.65 µM)

## CC(C)=CCC[C@@]1(C)C=Cc2c(O)c3c(c(CC=C(C)C)c2O1)O[C@]12C(=C[C@@H]4CC1C(C)(C)O[C@]2(C/C=C(\C)C(=O)O)C4=O)C3=O [Gh-1642, epiisogambogic acid]
[3]; [8]
  IC50: 6 µg/mL (≈ 9.54 µM)
[7]
  LC50 (50% lethal concentration): 1.3 µg/mL (≈ 2.07 µM)
